How the values were obtained:
[1] = test system: C57B1/6 mice; assay: Spontaneous locomotive activity; type: in vivo; details: 30 mg/kg
Excerpt: Further, animal data for FIGS. 22-26 were obtained using experimental methodologies described in a previously published reference, Influence of benzodiazepine binding site ligands on fear-conditioned contextual memory European journal of Pharmacology, Volume 426, Issues 1-2, 24 Aug. 2001, Pages 45-54, Timothy M. DeLorey, Richard C. Lin, Brian McBrady, Xiaohui He, James M. Cook, Jelveh Lameh and Gilda H. Loew, which is incorporated by reference as if fully set forth here in its entirety. Selected sections of the reference are provided below:
Male C57B1/6 mice were obtained from Charles Rivers Laboratories (Holister, Calif.) at 6 weeks of age. […] All animal protocols used in this study conform to the guidelines determined by the National Institute of Health (USA) Office for Protection from Research Risks and are approved by the Animal Care and Use Committee of the Palo Alto Veterans Administration Medical Center, Palo, Alto, Calif. […]
Mice were allowed to acclimate to the test room for 30 min prior to drug injection. […] Spontaneous locomotor activity was measured via seven sets of photoelectric sensors evenly spaced along the length of the monitoring chamber, 4 cm above the floor of the chamber (San Diego Instruments, San Diego, Calif.). Total activity was recorded in arbitrary units reflective of the number of times a mouse interrupts the photoelectric sensors during a 10-min monitoring session. […]

[2] = target: T1, α5β3γ2 benzodiazepine receptor GABA(A) isoform (UniProt P18507+P31644); assay: Radioligand competition binding, α5β3γ2 BzR/GABA(A) isoform; parameters: Ki α5; other: text; HEK-T cells (Roth et al.); species or system human and rat; details: read-out: Ki α5; HEK-T cells (Roth et al.)
T1 sequence (P18507 1-475): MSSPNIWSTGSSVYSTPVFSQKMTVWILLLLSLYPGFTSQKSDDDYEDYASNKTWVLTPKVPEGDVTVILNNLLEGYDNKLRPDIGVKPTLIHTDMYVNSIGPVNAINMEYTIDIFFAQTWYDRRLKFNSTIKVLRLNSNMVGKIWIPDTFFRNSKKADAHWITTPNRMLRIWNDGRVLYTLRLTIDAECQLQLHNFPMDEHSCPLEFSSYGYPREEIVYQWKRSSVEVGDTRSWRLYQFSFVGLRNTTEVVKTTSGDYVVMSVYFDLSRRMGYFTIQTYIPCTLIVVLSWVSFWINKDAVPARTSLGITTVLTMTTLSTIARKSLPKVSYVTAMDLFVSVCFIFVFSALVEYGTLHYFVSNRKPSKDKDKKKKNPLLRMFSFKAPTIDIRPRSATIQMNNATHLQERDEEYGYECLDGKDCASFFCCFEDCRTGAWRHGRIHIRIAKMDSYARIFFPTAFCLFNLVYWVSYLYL
T1 sequence (P31644 1-462): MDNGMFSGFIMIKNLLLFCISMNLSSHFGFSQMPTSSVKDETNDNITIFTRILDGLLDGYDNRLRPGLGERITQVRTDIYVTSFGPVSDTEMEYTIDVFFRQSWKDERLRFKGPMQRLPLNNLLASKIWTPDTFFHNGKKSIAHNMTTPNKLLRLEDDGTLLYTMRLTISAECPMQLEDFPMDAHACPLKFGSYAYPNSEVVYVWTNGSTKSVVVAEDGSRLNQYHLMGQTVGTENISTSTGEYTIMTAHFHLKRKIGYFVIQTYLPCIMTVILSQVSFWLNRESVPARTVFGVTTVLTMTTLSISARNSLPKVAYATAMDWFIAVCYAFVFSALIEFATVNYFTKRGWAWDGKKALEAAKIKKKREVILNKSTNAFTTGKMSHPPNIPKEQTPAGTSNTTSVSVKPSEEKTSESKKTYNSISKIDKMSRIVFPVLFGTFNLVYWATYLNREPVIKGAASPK

[3] = target: T2, α1β3γ2 benzodiazepine receptor GABA(A) isoform (UniProt P14867+P18507); assay: Radioligand competition binding, α1β3γ2 BzR/GABA(A) isoform; parameters: rows headed: Ki α1 (in words); other: text; HEK-T cells (Roth et al.); species or system human and rat; details: HEK-T cells (Roth et al.)
T2 sequence (P14867 1-456): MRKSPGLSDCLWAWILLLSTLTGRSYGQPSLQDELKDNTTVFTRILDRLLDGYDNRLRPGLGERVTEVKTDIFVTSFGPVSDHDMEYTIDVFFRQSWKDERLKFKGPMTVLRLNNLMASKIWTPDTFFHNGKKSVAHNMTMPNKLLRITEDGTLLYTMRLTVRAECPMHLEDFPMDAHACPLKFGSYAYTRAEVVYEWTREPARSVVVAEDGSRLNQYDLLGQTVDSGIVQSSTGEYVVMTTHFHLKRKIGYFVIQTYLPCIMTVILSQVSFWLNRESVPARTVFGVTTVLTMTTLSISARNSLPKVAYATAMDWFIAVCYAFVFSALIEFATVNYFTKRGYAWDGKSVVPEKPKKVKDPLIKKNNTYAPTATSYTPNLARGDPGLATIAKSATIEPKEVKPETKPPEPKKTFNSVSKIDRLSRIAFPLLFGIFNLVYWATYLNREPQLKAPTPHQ
T2 sequence (P18507 1-475): T1 sequence (P18507 1-475)
Description: The affinity of all ligands at the 6 major recombinant GABAA/BzR subtypes was measured by competition for [^3H]Ro15-1788 binding to HEK-T cells expressing both human and rat GABAA/Bz receptors of composition α1β2γ2 (α1), α2β2γ2 (α2), α3β2γ2 (α3), α4β2γ2 (α4), α5β2γ2 (α5) and α6β2γ2 (α6). It is well known that the β2 and β3 subunits can be interchanged with no effect on Bz ligand affinity or efficacy. […] These studies are similar to those performed in the laboratory of Bryan Roth who has already expressed the receptors employing the work of Kucken et. al. and Gray et. al.
In brief, for membrane preparations, the cells were scraped on to the ice and diluted into 5 mL of phosphate buffered saline (pH=7.40) and cells pelleted by centrifugation for 5 min. at 4° C. The pellet was resuspended in 1 mL of 50 mM Tris-acetate buffer (pH 7.4) and centrifuged at 18,000 g for 20 min. […] Each pellet were diluted to 6 mL and then 100 μL of membranes were incubated with approximately 1 nM final concentration of [^3H]Ro 15-1788 in a total volume of 250 μL together with serial dilutions of test compound for 90 min. on ice. The membranes were harvested in polyethyleneimine-pretreated Whatman GF/C filters and after drying and addition of scintillation cocktail, counted in a scintillation counter. […]

SMILES: CCc1ccc2c(c1)C(=O)N(C)Cc1c(C(=O)OCCCOC(=O)c3ncn4c3CN(C)C(=O)c3cc(CC)ccc3-4)ncn1-2 [XLi356, 1,3-Bis(8-ethyl-5,6-dihydro-5-methyl-6-oxo-4H-imidazo[1,5a][1,4]benzodiazepine-3-carboxy)propyl diester]
- locomotion (in words) [1]: reduced
- Ki [2]: 107 nM
- Ki α1 (in words) [3]: no affinity
